{"source": "patent US20100159496A1", "about": "“EVALUATION METHOD FOR PHOTOSYNTHESIS SAMPLE, EVALUATION SYSTEM FOR PHOTOSYNTHESIS SAMPLE, AND EVALUATION PROGRAM FOR PHOTOSYNTHESIS SAMPLE” (HAMAMATSU PHOTONICS K.K., priority 2006, published 2010)", "tested_on": "Spirulina platensis", "experiment": "Delayed luminescence of S. platensis exposed to simazine, fitted by Formula (1)", "type": "cell-based", "design": "Fitting formula value c3 / Fitting formula value a1 / Fitting formula value b1 / Fitting formula value c1 / Fitting formula value a2 / Fitting formula value b2 / Fitting formula value c2 / Fitting formula value a3 / Fitting formula value b3: unit not given here", "conditions": "for luminescence amount of delayed luminescence, exposed vs not exposed: 15 minutes after exposure (FIG. 10); for Fitting formula value a1 / Fitting formula value a2 / Fitting formula value a3 / Fitting formula value b1 / Fitting formula value b2 / Fitting formula value b3 / Fitting formula value c1 / Fitting formula value c2 / Fitting formula value c3: 15 minutes after exposure", "protocol": "In the present example, the measurement of delayed luminescence was carried out as follows. 2.5 mL of an S. platensis cell suspension, adjusted to have an absorbance at 660 nm of 0.05 in a general, 10×10 mm spectrometric cell, was exposed to simazine of any of various concentrations and left to stand for 15 minutes under a white fluorescent lamp of a light amount of 50 μmol·m−2·s−1. Thereafter, inside the measuring device 10, a red light (660 nm) of approximately 300 μmol·m−2·s−1 was illuminated for 10 seconds from the light source 18 as the excitation light for making delayed luminescence be emitted and then the delayed luminescence emitted after extinguishing of the excitation light was recorded for 50 seconds at 0.1 second intervals.\nIn the present example, the above-described Formula (1) was used for fitting. As examples for description of the fitting results, the measurement result for the “Not exposed” case is shown in FIG. 11A and a graph of the results of fitting to the measurement data are shown in FIG. 11B. In FIG. 11B, f1(t), f2(t), and f3(t) are respectively the first function, the second function, and the third function in Formula (1). From FIG. 11, it can be understood that the delayed luminescence measurement data can be fitted by a plurality of hill-shaped functions.\nBy the fitting, the function coefficients, ai, bi, and ci (i=1, 2, 3) are determined.", "key": {"[1]": {"conditions": "simazine exposure concentration 5 μg/L"}, "[2]": {"conditions": "simazine exposure concentration 25 μg/L"}, "[3]": {"conditions": "simazine exposure concentration 50 μg/L"}, "[4]": {"conditions": "simazine exposure concentration 100 μg/L"}}}
{"smiles": "CCNc1nc(Cl)nc(NCC)n1", "note": "[Simazine, simazine]", "values": [{"measurement": "variation of evaluation value c3 with simazine exposure concentration", "setting": "S. platensis (FIG. 12)", "result": "decreases in accordance with the simazine exposure concentration"}, {"measurement": "luminescence amount of delayed luminescence, exposed vs not exposed", "setting": "early time period (near 0 seconds) of time after excitation", "result": "increases"}, {"measurement": "luminescence amount of delayed luminescence, exposed vs not exposed", "setting": "later time period (5 seconds onward) after excitation", "result": "decreases"}, {"measurement": "Fitting formula value a1", "setting": "[1]", "result": 0.2}, {"measurement": "Fitting formula value a2", "setting": "[1]", "result": 0.01}, {"measurement": "Fitting formula value a3", "setting": "[1]", "result": 0.006}, {"measurement": "Fitting formula value b1", "setting": "[1]", "result": "−0.5"}, {"measurement": "Fitting formula value b2", "setting": "[1]", "result": "−0.5"}, {"measurement": "Fitting formula value b3", "setting": "[1]", "result": 22}, {"measurement": "Fitting formula value c1", "setting": "[1]", "result": 4.5}, {"measurement": "Fitting formula value c2", "setting": "[1]", "result": 3.5}, {"measurement": "Fitting formula value c3", "setting": "[1]", "result": 2.2}, {"measurement": "Fitting formula value a1", "setting": "[2]", "result": 0.2}, {"measurement": "Fitting formula value a2", "setting": "[2]", "result": 0.018}, {"measurement": "Fitting formula value a3", "setting": "[2]", "result": 0.005}, {"measurement": "Fitting formula value b1", "setting": "[2]", "result": "−0.5"}, {"measurement": "Fitting formula value b2", "setting": "[2]", "result": "−0.5"}, {"measurement": "Fitting formula value b3", "setting": "[2]", "result": 22}, {"measurement": "Fitting formula value c1", "setting": "[2]", "result": 4.8}, {"measurement": "Fitting formula value c2", "setting": "[2]", "result": 3.8}, {"measurement": "Fitting formula value c3", "setting": "[2]", "result": 1.6}, {"measurement": "Fitting formula value a1", "setting": "[3]", "result": 0.3}, {"measurement": "Fitting formula value a2", "setting": "[3]", "result": 0.02}, {"measurement": "Fitting formula value a3", "setting": "[3]", "result": 0.01}, {"measurement": "Fitting formula value b1", "setting": "[3]", "result": "−0.5"}, {"measurement": "Fitting formula value b2", "setting": "[3]", "result": "−0.5"}, {"measurement": "Fitting formula value b3", "setting": "[3]", "result": 21}, {"measurement": "Fitting formula value c1", "setting": "[3]", "result": 5}, {"measurement": "Fitting formula value c2", "setting": "[3]", "result": 3.8}, {"measurement": "Fitting formula value c3", "setting": "[3]", "result": 1.2}, {"measurement": "Fitting formula value a1", "setting": "[4]", "result": 0.4}, {"measurement": "Fitting formula value a2", "setting": "[4]", "result": 0.024}, {"measurement": "Fitting formula value a3", "setting": "[4]", "result": 0.02}, {"measurement": "Fitting formula value b1", "setting": "[4]", "result": "−0.5"}, {"measurement": "Fitting formula value b2", "setting": "[4]", "result": "−0.5"}, {"measurement": "Fitting formula value b3", "setting": "[4]", "result": 20}, {"measurement": "Fitting formula value c1", "setting": "[4]", "result": 5.5}, {"measurement": "Fitting formula value c2", "setting": "[4]", "result": 3.8}, {"measurement": "Fitting formula value c3", "setting": "[4]", "result": 0.7}]}
